The structures appear in SMILES notation.

The source of these data is publication PMC6053404, “Enzymatic one-step ring contraction for quinolone biosynthesis” (Nature Communications, 2018).

The target in one assay is T1, AsqI (Aspergillus nidulans, UniProt C8VJQ3).
T1 construct: hexahistidine-tagged, recombinant from Escherichia coli; plasmid pKW18244; zinc-dependent
Nature of the assay: LC-MS initial rate of […]′-methoxyviridicatin […] formation. The format is biochemical. As to conditions: MES Na 100 mM, NaCl 100 mM, pH 5.5, 30 °C; substrate 0.05-0.8 mM, Km extrapolated above tested range.

Another assay deals with T2, PngL.
T2 construct: hexahistidine-tagged, recombinant from Escherichia coli; difficult to purify
Nature of the assay: steady-state kinetics. The format is biochemical, Penicillium sp. FKI-2140. The settings on record: accurate parameters prevented by difficult purification; conditions in Supplementary Methods.

T1 sequence (C8VJQ3 whole entry): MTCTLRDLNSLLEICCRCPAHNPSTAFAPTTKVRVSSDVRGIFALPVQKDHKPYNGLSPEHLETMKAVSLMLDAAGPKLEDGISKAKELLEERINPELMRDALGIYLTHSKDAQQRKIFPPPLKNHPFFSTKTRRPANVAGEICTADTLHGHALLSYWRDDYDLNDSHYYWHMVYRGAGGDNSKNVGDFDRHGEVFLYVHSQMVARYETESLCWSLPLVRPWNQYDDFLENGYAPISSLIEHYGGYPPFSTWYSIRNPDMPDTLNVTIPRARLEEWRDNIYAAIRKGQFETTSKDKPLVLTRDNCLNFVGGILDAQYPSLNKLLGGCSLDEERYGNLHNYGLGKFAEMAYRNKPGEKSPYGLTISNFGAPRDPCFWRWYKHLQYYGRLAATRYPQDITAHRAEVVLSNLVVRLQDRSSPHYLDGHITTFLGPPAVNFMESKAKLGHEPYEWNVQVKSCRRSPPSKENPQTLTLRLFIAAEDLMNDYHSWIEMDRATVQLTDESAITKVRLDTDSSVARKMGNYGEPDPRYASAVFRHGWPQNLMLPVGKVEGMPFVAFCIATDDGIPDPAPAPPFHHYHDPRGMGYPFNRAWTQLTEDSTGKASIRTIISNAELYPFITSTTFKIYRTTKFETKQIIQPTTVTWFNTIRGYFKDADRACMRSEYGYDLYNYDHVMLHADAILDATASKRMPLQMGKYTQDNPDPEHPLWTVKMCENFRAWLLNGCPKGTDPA

One may read the Km as the concentration of substrate that gives half-maximal velocity. With `COc1ccc(C2OC23C(=O)Nc2ccccc2C(=O)N3C)cc1` (single isomer, unassigned; (-)) [compound 2, (–)-4′-methoxycyclopenin], the Km is 2860 ± 520 µM at AsqI and 350 ± 30 µM in the assay on PngL.
